The record followed here is BindingDB's records for patent US12383533 (Frost Biologic, 2025).

The assay addresses Tubulin alpha-1A chain (Sus scrofa, UniProt P02550). The assay is described as follows: Not found.
Text: Not found

Sequence of Tubulin alpha-1A chain (P02550 whole entry, looked up): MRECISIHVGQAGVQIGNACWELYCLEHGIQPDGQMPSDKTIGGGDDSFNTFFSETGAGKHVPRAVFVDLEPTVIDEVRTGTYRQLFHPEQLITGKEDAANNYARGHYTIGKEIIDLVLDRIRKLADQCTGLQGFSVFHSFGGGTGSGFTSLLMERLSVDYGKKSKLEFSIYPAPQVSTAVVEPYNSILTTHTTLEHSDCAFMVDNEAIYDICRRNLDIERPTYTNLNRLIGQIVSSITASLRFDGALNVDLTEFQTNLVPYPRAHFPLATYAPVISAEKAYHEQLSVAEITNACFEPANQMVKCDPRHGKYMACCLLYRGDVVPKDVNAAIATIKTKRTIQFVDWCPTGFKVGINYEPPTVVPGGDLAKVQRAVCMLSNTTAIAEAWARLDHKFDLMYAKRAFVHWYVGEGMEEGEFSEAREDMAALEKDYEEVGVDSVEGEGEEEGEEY

In the case of `Cc1ncc(C(=O)Nc2ncc(-c3cccc(NC4CC4)c3)cc2F)cn1` [US12383533, Compound 68], the IC50 was 1980 nM.

The term IC50 denotes the concentration at which inhibition is half-maximal. The low end stands for greater potency, the high end for weaker potency.
